# Source: patent publication US6600015B2, “Selective linear peptides with melanocortin-4 receptor (MC4-R) agonist activity” (Hoffmann-La Roche Inc., priority 2000, dated 2003)
# Non-standard residues stand in square brackets, D forms with d. Residues, ends and D or L forms follow the SMILES beside them. *: point of attachment. Butyryl = CCCC(=O)*
# Columns and labels:
# MC-4 receptor = biological target: T1, MC-4 receptor (Homo sapiens, UniProt P32245); experiment: Agonist assay: cAMP response in 293 cells transfected with MC-4 receptor (Biotrak-cAMP SPA); type: cell-based; details: cAMP increase, read-out: EC50 for MC4-R agonist activity
# T1 construct: expressed in transfected cells; host or cells: 293 cells (293MC4, obtained from Dr. Wei Gu, Millenium)
# Description: Description: 293 cells transfected with either the MC-4 receptor or MC-1 receptor were grown in 96 well plates. The cells were stimulated with either 100 nM NDP-αMSH or screening compounds. Cyclic AMP was extracted from the cells and concentrations were determined using a Biotrak-cAMP SPA assay. Agonists were identified as those compounds causing an increase in cAMP. […] Wei Gu, Millenium) were cultured in 75cm^2flasks in D-MEM supplemented with 10% FCS and 500 μg/ml G418. Cells were trypsinized and split 1:3 into 96 well flat-bottom tissue culture treated plates. Cells were stimulated at confluence (day 2-4). cAMP Response: Compounds serially diluted in 100% DMSO were further diluted 1:200 (2.5 μl compound dilution+500 μl media) in D-MEM containing 10% FBS and 0.1 mM IBMX. For unstimulated cells, 2.5 μl of DMSO was added to 500 μl of media. For NDP-αMSH stimulated cells, 2.5 μl of 20 μM NDP-αMSH in 100% DMSO was added to 500 μl of media (final conc. 100 nM). Final concentration of DMSO in all wells was 0.5%. Note: Each sample was run in duplicate on separate plates Culture medium was removed from confluent 96 well culture plates and replaced with 200 μl of above dilutions into the appropriate wells . The plates were incubated for 1 hr at RT. […] [125I]cAMP binding to the SPA beads was determined by counting each plate for 2 minutes on a Packard TopCount™. […]
# MC-1 receptor = biological target: T2, MC-1 receptor (Homo sapiens, UniProt Q01726); experiment: Agonist assay: cAMP response in 293 cells transfected with MC-1 receptor (Biotrak-cAMP SPA); type: cell-based; details: MC1-R versus MC4-R agonist activity, transfected 293 cells
# T2 construct: expressed in transfected cells; host or cells: 293 cells
# T2 sequence (Q01726 whole entry): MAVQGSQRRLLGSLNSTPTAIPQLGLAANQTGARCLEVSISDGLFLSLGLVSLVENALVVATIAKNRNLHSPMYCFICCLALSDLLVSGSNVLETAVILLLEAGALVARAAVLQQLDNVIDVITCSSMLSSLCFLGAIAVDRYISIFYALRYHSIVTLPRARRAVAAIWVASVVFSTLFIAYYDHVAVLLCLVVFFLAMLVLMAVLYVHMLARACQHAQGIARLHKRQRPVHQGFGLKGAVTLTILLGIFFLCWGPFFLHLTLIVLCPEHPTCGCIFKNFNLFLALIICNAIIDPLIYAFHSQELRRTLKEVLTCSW
# Description: Culture medium was removed from confluent 96 well culture plates and replaced with 200 μl of above dilutions into the appropriate wells . The plates were incubated for 1 hr at RT. The media was removed, and the plates were washed 1× with 200^μl well of PBS. CAMP was extracted by the addition of 60 μl 70% ethanol (stored in the refrigerator). […]
# cAMP Assay: The extracted samples and all reagents included in the kit were brought to room temperature. […] [125I]cAMP binding to the SPA beads was determined by counting each plate for 2 minutes on a Packard TopCount™. […]
# T1 sequence (P32245 whole entry): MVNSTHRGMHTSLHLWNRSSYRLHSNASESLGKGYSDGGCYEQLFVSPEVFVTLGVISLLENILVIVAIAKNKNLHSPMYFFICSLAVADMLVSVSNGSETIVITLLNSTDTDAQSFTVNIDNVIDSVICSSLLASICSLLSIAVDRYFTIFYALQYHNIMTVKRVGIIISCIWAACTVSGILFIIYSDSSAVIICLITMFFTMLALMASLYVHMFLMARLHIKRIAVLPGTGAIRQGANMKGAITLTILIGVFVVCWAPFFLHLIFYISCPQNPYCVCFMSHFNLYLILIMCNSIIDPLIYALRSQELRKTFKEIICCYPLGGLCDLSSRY
EC50 (MC-4 receptor) [nM],SMILES,MC1-R agonist activity compared with MC4-R agonist activity (MC-1 receptor)
< 500,"CCCCC(=O)NC1(C(=O)N[C@H](Cc2ccccc2)C(=O)N[C@@H](CCCNC(=N)N)C(=O)N[C@@H](Cc2c[nH]c3ccccc23)C(=O)NCC(N)=O)CC=C(c2ccccc2)CC1 (single isomer, unassigned) [Penta-Ape-(D)Phe-Arg-Trp-Gly-NH2]",
,"CCCC(=O)N[C@@H](Cc1c[nH]cn1)C(=O)N[C@H](Cc1ccccc1)C(=O)N[C@@H](CCCNC(=N)N)C(=O)N[C@@H](Cc1c[nH]c2ccccc12)C(=O)NCC(N)=O [Example 30, Bu-His-(D)Phe-Arg-Trp-Gly-NH2] (Butyryl-H[dF]RWG-NH2)",greater MC1-R agonist activity than MC4-R agonist activity
